The target in this assay is T1, HA-I841A CaSR mutant (Rattus norvegicus, UniProt P48442, I841A).
T1 construct: mGluR5 signal peptide (N); expressed in transfected cells; host or cells: HEK293T
T1 sequence (P48442 20-1079 I841A): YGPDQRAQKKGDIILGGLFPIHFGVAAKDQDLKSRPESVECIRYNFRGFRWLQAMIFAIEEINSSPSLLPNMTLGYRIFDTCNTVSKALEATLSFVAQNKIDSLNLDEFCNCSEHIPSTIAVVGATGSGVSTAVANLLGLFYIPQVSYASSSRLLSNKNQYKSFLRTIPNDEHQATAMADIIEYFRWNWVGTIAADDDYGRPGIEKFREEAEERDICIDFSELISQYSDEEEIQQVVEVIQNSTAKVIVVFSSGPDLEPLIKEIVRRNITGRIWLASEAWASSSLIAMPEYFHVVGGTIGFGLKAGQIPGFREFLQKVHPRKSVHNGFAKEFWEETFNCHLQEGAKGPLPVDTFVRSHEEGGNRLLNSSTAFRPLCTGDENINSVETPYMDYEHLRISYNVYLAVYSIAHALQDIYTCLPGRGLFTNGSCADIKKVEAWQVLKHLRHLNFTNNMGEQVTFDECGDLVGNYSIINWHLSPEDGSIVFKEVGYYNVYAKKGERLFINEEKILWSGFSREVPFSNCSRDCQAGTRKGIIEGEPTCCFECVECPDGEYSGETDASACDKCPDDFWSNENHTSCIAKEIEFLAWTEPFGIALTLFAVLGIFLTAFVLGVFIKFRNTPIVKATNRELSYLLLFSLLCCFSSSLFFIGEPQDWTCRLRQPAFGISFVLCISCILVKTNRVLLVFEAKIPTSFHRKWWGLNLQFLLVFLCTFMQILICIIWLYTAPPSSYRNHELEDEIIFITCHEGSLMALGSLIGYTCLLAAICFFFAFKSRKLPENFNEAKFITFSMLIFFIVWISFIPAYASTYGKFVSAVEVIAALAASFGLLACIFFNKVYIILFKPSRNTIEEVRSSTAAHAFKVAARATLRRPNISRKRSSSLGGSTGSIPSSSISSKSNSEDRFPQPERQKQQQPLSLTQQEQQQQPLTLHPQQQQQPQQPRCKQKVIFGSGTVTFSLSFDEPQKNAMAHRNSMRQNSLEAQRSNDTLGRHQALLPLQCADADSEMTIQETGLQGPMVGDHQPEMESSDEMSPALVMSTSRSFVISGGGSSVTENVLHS
The experiment in a line: IP-One assay, HEK293T transiently transfected. The class given is cell-based.

Regarding `[Ca+2]` [Ca^2+], the 50% effective concentration (EC50) is, setting by setting: (Ca^2+ alone) 2.59 mM; (Ca^2+ with 1 μM NPS R-568) 3.68 mM; (Ca^2+ with 5 μM NPS 2143) 5.29 mM. The “pEC50 ± S.E.M.” value (Ca^2+ alone) is 2.59 ± 0.01 and the “pEC50 ± S.E.M.” value (Ca^2+ with 5 μM NPS 2143) turned out to be 2.28 ± 0.03. The “Max ± S.E.M.” value turned out to be 81 ± 14% (Ca^2+ alone, normalized to maximum response of WT CaSR); 99 ± 18% (Ca^2+ with 1 μM NPS R-568, normalized to maximum response with Ca^2+ alone for the construct); 97 ± 7.6% (Ca^2+ with 5 μM NPS 2143, normalized to maximum response with Ca^2+ alone for the construct).

(Values after publication PMC5394417, “Investigating the molecular mechanism of positive and negative allosteric modulators in the calcium-sensing receptor dimer” (Scientific Reports, 2017).)
